Results from ChEMBL document CHEMBL4376817, “Drug Discovery Targeting Anaplastic Lymphoma Kinase (ALK)” (J Med Chem, 2019).
Values belong to the molecule of their own block, whether it stands above or below them.

Legend:
[1] = molecular target: Vascular endothelial growth factor receptor 2 (Homo sapiens, UniProt P35968)
[2] = test system: IMR-32; assay: Cytotoxicity against human IMR32 cells; format: functional, cell-based
[3] = molecular target: T1, ALK tyrosine kinase receptor (Homo sapiens, UniProt Q9UM73)
T1 sequence (Q9UM73 whole entry): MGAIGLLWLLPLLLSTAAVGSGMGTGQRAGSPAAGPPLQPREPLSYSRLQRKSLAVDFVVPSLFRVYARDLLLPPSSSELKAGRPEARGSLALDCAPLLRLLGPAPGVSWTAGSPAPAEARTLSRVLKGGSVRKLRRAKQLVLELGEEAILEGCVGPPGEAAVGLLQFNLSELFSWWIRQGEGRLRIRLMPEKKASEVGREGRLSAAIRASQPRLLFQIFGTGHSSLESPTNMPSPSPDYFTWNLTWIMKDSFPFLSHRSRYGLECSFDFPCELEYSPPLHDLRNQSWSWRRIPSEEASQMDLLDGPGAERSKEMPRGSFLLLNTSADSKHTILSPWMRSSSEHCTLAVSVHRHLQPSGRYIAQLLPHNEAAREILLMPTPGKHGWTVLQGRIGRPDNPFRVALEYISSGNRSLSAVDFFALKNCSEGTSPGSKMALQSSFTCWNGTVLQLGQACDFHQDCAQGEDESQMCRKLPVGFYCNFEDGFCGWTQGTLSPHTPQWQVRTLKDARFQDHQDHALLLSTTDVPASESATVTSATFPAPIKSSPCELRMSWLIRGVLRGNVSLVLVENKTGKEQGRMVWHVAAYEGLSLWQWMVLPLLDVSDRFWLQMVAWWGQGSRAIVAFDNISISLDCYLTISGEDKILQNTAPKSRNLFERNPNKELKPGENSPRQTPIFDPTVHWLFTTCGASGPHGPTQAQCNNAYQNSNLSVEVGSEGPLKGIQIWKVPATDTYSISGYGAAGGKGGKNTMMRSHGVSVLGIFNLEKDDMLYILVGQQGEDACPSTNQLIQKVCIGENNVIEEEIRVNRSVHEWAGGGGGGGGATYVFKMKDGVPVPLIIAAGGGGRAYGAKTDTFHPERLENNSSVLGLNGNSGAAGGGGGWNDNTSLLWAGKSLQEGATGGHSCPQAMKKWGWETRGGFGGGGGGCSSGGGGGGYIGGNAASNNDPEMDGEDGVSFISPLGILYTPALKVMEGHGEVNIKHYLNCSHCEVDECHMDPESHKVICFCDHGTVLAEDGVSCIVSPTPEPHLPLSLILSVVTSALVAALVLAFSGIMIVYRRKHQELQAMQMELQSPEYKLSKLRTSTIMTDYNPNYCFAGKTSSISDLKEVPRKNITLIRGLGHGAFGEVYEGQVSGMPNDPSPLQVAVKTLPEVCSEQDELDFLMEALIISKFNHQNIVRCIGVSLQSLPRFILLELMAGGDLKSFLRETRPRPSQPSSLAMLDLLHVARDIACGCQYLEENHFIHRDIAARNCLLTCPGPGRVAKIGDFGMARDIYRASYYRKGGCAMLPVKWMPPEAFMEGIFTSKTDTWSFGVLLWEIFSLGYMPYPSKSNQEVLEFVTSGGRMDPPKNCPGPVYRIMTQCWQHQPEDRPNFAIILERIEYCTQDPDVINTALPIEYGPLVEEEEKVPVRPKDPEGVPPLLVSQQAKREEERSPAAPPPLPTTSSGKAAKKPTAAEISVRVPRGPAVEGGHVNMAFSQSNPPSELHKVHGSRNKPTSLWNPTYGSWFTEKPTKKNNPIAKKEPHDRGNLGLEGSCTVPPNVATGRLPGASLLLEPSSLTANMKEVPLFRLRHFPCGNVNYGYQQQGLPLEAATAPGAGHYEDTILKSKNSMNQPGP

[4] = test system: SH-SY5Y; assay: Cytotoxicity against human SH-SY5Y cells; format: functional, cell-based
[5] = physchem; conditions: octanol/water
[6] = test system: NCI-H3122; assay: cells; conditions: Homo sapiens
[7] = molecular target: T1, ALK tyrosine kinase receptor; remark: listed apart in the source
[8] = test system: NCI-H3122; assay: Cytotoxicity against human NCI-H3122 cells harboring EML4-ALK E13;A20 mutant incubated for 72 hrs by Cell titer blue assay; format: functional, cell-based; conditions: NCI-H3122, 72 h
[9] = molecular target: Hepatocyte growth factor receptor (Homo sapiens, UniProt P08581); assay: Inhibition of c-MET (unknown origin) by kinome scan-based assay
Hepatocyte growth factor receptor, sequence (P08581 whole entry): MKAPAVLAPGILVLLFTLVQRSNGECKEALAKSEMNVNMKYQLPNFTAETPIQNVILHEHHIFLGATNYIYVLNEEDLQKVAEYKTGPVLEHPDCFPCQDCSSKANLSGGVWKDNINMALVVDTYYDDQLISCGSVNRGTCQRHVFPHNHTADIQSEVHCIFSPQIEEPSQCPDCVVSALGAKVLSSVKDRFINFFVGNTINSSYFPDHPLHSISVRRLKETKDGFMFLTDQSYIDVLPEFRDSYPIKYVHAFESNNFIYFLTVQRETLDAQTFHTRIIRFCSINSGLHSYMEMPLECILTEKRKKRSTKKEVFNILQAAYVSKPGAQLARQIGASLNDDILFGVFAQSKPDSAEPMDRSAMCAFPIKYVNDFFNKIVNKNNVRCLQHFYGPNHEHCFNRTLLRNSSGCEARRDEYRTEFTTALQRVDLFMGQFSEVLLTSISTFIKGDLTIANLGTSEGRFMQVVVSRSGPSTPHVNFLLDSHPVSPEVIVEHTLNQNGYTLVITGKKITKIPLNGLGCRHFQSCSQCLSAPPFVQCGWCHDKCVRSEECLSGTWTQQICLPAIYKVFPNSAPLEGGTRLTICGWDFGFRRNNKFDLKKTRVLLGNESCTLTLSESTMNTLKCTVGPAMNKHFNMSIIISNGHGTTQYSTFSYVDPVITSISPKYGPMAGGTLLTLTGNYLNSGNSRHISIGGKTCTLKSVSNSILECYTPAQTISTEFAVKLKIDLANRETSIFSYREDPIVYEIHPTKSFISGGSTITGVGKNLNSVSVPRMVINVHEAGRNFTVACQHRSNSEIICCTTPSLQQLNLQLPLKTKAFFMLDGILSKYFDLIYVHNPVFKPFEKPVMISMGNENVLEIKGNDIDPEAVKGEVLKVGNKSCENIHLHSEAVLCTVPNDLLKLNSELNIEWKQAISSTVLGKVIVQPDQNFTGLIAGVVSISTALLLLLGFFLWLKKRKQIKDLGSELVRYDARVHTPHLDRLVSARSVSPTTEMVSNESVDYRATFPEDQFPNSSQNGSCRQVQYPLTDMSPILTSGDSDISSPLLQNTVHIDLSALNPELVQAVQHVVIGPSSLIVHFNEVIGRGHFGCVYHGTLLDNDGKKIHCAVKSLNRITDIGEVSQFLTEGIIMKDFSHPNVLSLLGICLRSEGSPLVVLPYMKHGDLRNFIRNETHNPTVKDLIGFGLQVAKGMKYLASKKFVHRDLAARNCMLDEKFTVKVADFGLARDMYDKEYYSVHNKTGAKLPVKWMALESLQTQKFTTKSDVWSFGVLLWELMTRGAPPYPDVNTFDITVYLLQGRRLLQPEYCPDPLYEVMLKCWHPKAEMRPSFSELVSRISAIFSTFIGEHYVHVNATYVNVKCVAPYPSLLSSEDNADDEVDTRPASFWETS

[10] = test system: NCI-H3122; assay: Potency index, ratio of crizotinib IC50 to test compound IC50 for cytotoxicity against human NCI-H3122 cells harboring EML4-ALK E13;A20 mutant; format: functional

Vascular endothelial growth factor receptor 2, sequence (P35968 whole entry): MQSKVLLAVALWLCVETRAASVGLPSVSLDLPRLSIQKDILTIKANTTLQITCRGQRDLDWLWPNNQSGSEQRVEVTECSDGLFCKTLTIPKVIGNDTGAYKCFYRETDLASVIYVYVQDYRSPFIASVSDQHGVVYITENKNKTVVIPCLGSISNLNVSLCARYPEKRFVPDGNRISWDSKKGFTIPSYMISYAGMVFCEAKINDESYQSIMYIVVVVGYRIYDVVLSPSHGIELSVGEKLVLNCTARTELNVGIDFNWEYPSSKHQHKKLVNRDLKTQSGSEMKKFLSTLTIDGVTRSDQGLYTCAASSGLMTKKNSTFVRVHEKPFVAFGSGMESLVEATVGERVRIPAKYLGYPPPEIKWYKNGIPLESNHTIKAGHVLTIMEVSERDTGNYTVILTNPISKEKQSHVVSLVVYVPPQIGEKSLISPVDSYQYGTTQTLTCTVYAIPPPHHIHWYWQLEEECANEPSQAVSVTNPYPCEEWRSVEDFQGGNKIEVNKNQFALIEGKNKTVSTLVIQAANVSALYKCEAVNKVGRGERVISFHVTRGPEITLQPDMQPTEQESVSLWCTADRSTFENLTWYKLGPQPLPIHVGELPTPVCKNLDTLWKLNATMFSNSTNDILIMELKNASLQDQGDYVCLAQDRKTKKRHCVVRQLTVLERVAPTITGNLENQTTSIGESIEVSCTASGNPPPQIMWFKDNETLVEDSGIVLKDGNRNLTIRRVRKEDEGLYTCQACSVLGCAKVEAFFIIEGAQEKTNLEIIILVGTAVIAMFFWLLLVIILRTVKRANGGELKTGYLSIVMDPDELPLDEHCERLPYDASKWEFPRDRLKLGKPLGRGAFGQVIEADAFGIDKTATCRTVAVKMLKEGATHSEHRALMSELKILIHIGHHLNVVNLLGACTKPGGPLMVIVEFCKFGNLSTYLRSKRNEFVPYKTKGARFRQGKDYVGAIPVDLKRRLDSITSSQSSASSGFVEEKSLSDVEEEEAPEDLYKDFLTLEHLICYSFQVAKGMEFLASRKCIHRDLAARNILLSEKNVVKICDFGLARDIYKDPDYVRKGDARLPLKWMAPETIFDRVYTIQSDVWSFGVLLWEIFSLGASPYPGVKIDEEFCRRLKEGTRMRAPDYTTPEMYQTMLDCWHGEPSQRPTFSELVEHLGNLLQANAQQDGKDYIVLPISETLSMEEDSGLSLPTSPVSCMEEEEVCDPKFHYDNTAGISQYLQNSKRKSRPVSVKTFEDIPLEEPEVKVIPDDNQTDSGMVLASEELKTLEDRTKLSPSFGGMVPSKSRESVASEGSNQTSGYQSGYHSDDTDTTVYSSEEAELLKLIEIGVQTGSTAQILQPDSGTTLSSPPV

SMILES: CCc1cc2c(cc1N1CCN(C3COC3)CC1)C(C)(C)c1[nH]c3cc(C#N)ccc3c1C2=O
- IC50 [1]: > 5000 nM

SMILES: Cc1nn(C)c2c1Cc1cnc(N)c(c1)O[C@H](C)c1cc(F)ccc1C(=O)N(C)C2
- logD [5]: 2.2

The next lines start with results.

- Ki [3]: 0.75 nM
SMILES: COc1cc(N2CCC(N)CC2)ccc1Nc1ncc(Cl)c(-c2c[nH]c3ccccc23)n1
- IC50 [2]: 2.8 nM
- IC50 [4]: 1.7 nM

- IC50 [6]: 9 nM
SMILES: CCc1cc2c(cc1N1CCC(N3CCOCC3)CC1)C(C)(C)c1[nH]c3cc(C#N)ccc3c1C2=O [ALECTINIB]

- IC50 [7]: < 0.4 nM
- IC50 [9]: 0.74 nM
SMILES: C[C@@H]1CN(C(=O)c2ccc(NC(=O)c3cc(O[C@H](C)c4c(Cl)ccc(F)c4Cl)c(N)nn3)cc2)C[C@H](C)N1 [ENSARTINIB]
- IC50 [8]: 15 nM
- Ratio IC50 [10]: 10
